Experiments:
[1] = tested on: opto-α-syn SH-SY5Y cells; experiment: OASIS-based high-content imaging assay of light-induced α-syn aggregation (5G4 staining, Aggregates Induction Score); type: cell-based, human; details: for AIS compared to blue light-illuminated DMSO control: two independent experiments, 24-well culture conditions, blue light stimulation; for AIS, aggregates induction score: validation of 19 hits, 24-well plates, blue light, AIS normalized to positive control (blue light, DMSO) set as 1.0
Description: The opto-α-syn expressing SH-SY5Y cells were seeded in 96-well black flat bottom imaging microplates (Falcon) at 30,000 cells per well in 100 μL of complete media using E1-ClipTip electronic multichannel pipette (Thermo Fisher Scientific) and incubated in 37° C. and 5% CO2 humidified incubator. After 18 h of incubation, 10 μL of 10 μM compounds (column 2 to 10) or 1% DMSO (column 1 and 12) were added (final concentration of DMSO is 0.1%). In order to induce aggregations, the plates were illuminated with blue light (26 μW/mm^2) on customized blue light illumination 96-well plates for 2 h. Afterward, cells were fixed in 4% paraformaldehyde (PFA) for 15 min and stained with the aggregated-α-syn antibody (5G4) after permeabilization with 0.1% Triton X-100/0.5% BSA/PBS solution. […] To analyze images, the automated aggregation quantification algorithm and cell counting algorithm in the form of macro are developed using ImageJ software. Briefly, the algorithm includes the inversion, subtracting background, threshold selection, analyzing particles with ranged size and circularity. The Aggregates Induction Score (AIS) is calculated using, the following equation: […]
where N^agg is the number of aggregates, ^Ntotal is the number of total cells. The AIS in each well is normalized by the AIS in positive control which is set as 1.0. […] The hit selection strategy was based on calculated AIS; hits were defined as AIS<0.5. […] Two independent experiments were performed, and total 10 images per well are analyzed to calculate AIS.
As illustrated in FIGS. 8A-8E, high-content imaging screening with the optogenetic α-syn aggregation system was performed, following the schematic representation of the process of high-content imaging (HCI) screening with optogenetics-assisted method of alpha-synuclein aggregation induction system (OASIS) (FIG. 8A). SH-SY5Y cells expressing opto-α-syn were in dark or exposed to blue light (26 μW/mm^2 at 470 nm, 1 Hz, 1 s) for 1.5 h under 96-well plate culture conditions, and then immunostained with 5G4 antibody. The equation of Aggregates Induction Score (AIS) (FIG. 8B) was used for the calculation of Z′-factor for HCI screening with OASIS (FIG. 8C). […] Arrow represents the degree of separation (Z′-factor) between light-illuminated and darkness controls. […] Detailed information of numbered compounds was described in Table 1. One-way ANOVA followed by Dunnett's post hoc test (n=10 or 20, 5 or 10 images each from two independent experiments). *P<0.05, **P<0.01, ***P<0.001, ****P<0.0001.
As illustrated in FIGS. 9A-9B, high-content imaging screening with the optogenetic α-syn aggregation system was performed. The measurement of 5G4^+ aggregates in opto-mock or opto-α-syn SH-SY5Y neuronal cells was assessed. Cells were in dark or exposed to blue light (26 μW/mm^2 at 470 nm, 1 Hz, 1 s) for 1.5 h, and then immunostained with 5G4 antibody. […] Images were converted to grayscale, and a threshold was adjusted to exclude the background based on the size of particles. Once the value of threshold was determined, all the images were applied with the fixed threshold, and then the number of aggregates was measured (FIG. 9A). Number of DAPI from the original images were counted (FIG. 9B). Representative images of opto-α-syn SH-SY5Y neuronal cells treated with 19 compounds under 24-well plate culture conditions were imaged. SH-SY5Y cells expressing opto-α-syn were in dark or exposed to blue light (34 μW/mm^2 at 470 nm, 1 Hz, 0.5 s) for 1.5 h, and then immunostained with 5G4 antibody.

[2] = tested on: mouse primary neurons treated with α-syn PFF; experiment: α-syn PFF model in mouse primary neurons (TX-insoluble pathologic α-syn); type: cell-based
Description: To validate the effects of these two compounds on the OASIS-independent model, α-syn PFF were treated with mouse primary neurons and non-OASIS-human PD hiPSC-derived mDA neurons with CDC 021 and BAG 956.

[3] = tested on: opto-α-syn PD hiPSC-derived mDA neurons; experiment: Light-induced α-syn aggregation and neurotoxicity in opto-α-syn PD hiPSC-derived mDA neurons; type: cell-based, human; details: blue light 7 days; compared to DMSO control; significant at 1 and 10 nM CDC, 10 and 100 nM BAG
Description: Whether these potential hit compounds can inhibit α-syn aggregation and rescue aggregation-induced neuronal toxicity was tested on PD hiPSC-derived mDA neurons. The top 5 ranked small compounds in FIGURE SE were selected and these compounds to were used to treat opto-α-syn PD hiPSC-derived mDA neurons at three different concentrations (1 nM, 10 nM, 100 nM) with blue light stimulation. […] Overall, the two compounds were finally selected among the potential hit drugs from our novel opto-α-syn neuronal cell model-based primary screening (FIG. 11D), and they considerably rescued neuronal cell death from aggregation-induced TH^+ mDA neuron-selective toxicity in PD-iPSC derived neurons. To identify possible molecules involved in this compound-mediated recovery of TH^+ mDA neurons, RNA-sequencing (RNA-seq) analysis was performed with four different samples (dark condition with DMSO, blue light stimulation with DMSO, blue light stimulation with BAG treatment, and blue light stimulation with CDC treatment). To find BAG- or CDC-responsive genes, differentially expressed genes (DEGs) of DMSO-treated samples upon blue light stimulation were first extracted, and then the DEGs were filtered with criteria of which became non-DEGs in response to CDC or BAG treatment. […]
The effect of 5 selected compounds on opto-α-syn-expressing PD hiPSC-derived mDA neurons was evaluated. […]

[4] = tested on: blue light-illuminated opto-α-syn-mDA neurons; experiment: Autophagy and aggregate clearance in blue light-illuminated opto-α-syn-mDA neurons; type: cell-based, human; details: additional treatment with BAG 956, blue light-illuminating condition
Description: Because autophagy can be activated by the inhibition of PI 3-kinase (PI3K) or the PDK1 pathway, it was tested whether treatment with BAG 956 can induce the autophagic flux to decrease α-syn aggregates in opto-α-syn mDA neurons and MOs.

SMILES: Cc1cc(Nc2nc(N[C@@H](C)c3ncc(F)cn3)ncc2Cl)n[nH]1 [AZD 1480]
- AIS compared to blue light-illuminated DMSO control [1]: significant decrease
- AIS, aggregates induction score [1]: 0.31

SMILES: CC(C)c1ccc2oc3nc(N)c(C(=O)O)cc3c(=O)c2c1 [Amlexanox]
- AIS, aggregates induction score [1]: 0.53

SMILES: O=C1NC(=O)c2c1c1c3ccccc3[nH]c1c1[nH]c3ccccc3c21 [Arcyriaflavin A]
- AIS compared to blue light-illuminated DMSO control [1]: significant decrease
- AIS, aggregates induction score [1]: 0.37

SMILES: CC1(C)C(=O)N=C2C1=C(O)C(=O)c1ccccc12 [BVT 948]
- AIS compared to blue light-illuminated DMSO control [1]: significant decrease
- AIS, aggregates induction score [1]: 0.36

SMILES: COc1cc2nc(N3CCC(N4CCCCC4)CC3)nc(NC3CCCCCC3)c2cc1OC.Cl.Cl [C 021 dihydrochloride]
- AIS compared to blue light-illuminated DMSO control [1]: significant decrease
- AIS, aggregates induction score [1]: 0.19
- pathologic α-syn in the Triton X-100 (TX)-insoluble fraction [2]: significantly reduced
- survival rate of TH+ mDA neurons [3]: significant increase

SMILES: O=C1CCc2cc(OCCCCc3nnnn3C3CCCCC3)ccc2N1 [Cilostazol]
- AIS, aggregates induction score [1]: 0.65

SMILES: CCCCCCCCCCC(C)(C)C(=O)Nc1c(OC)cc(OC)cc1OC [Compound C1976, CI 976]
- AIS, aggregates induction score [1]: 0.63

SMILES: NS(=O)(=O)c1cc2c(cc1Cl)NC(C1CC3C=CC1C3)NS2(=O)=O (stereo not shown) [Cyclothiazide]
- AIS, aggregates induction score [1]: 0.68

SMILES: C[C@@H]1C[C@H]2[C@@H]3CCC4=CC(=O)C=C[C@]4(C)[C@@]3(F)[C@@H](O)C[C@]2(C)[C@@]1(O)C(=O)CO [Dexamethasone]
- AIS, aggregates induction score [1]: 0.74

SMILES: O=C(O)c1ccccc1C(=O)Nc1ccc(-c2ccccc2)cc1 [Kartogenin]
- AIS, aggregates induction score [1]: 0.98

SMILES: COc1c(C)c2c(c(O)c1C/C=C(\C)CCC(=O)OCCN1CCOCC1)C(=O)OC2 [Mycophenolate mofetil]
- AIS, aggregates induction score [1]: 0.71

SMILES: COc1c(C)c2c(c(O)c1C/C=C(\C)CCC(=O)O)C(=O)OC2 [Mycophenolic acid]
- AIS, aggregates induction score [1]: 0.57

SMILES: CCCN(CCC)CCc1ccc(OC)c(OCCc2ccccc2)c1.Cl [NE 100 hydrochloride]
- AIS, aggregates induction score [1]: 0.53

SMILES: CC(=O)c1cc2c(o1)C(=O)c1ccccc1C2=O [Napabucasin]
- AIS, aggregates induction score [1]: 0.97

SMILES: CCOC(=O)c1ccc(N(C)c2csc(-c3ccccc3)n2)cc1 [Neuropathiazol]
- AIS, aggregates induction score [1]: 0.73

SMILES: CN(C)CCc1c[nH]c2ccc(Cn3cncn3)cc12 [Rizatriptan benzoate]
- AIS, aggregates induction score [1]: 0.59

SMILES: CCc1c(C(=O)Nc2cc(S(=O)(=O)N(CC)CC)ccc2O)[nH]c(C)c1C(C)=O [XD 14]
- AIS, aggregates induction score [1]: 0.75

SMILES: CO/C1=C\C(C)=C\[C@@H](C)[C@@H](O)[C@@H](C)C/C(C)=C/C=C/[C@H](OC)[C@@H]([C@@H](C)[C@@H](O)[C@H](C)[C@@]2(O)C[C@@H](O)[C@H](C)[C@@H](C(C)C)O2)OC1=O [bafilomycin A1]
- BAG 956-mediated level of TH+ mDA neurons [4]: reversed
- BAG 956-mediated reduction of 5G4+ α-syn aggregates [4]: reversed

— patent publication US20260023070A1, “OPTOGENETIC ALPHA-SYNUCLEIN AGGREGATION SYSTEM-BASED COMPOUND SCREENING PLATFORM IN PD-hiPSC-mDA NEURONS” (The Johns Hopkins University, priority 2022, published 2026)
